{"source": "patent US20240398824A1", "about": "“Inhibition Of Rip Kinases For Treating Neurodegenerative Disorders” (The Johns Hopkins University, priority 2018, published 2024)", "tested_on": "BV-2 microglia", "assay": "Real-time PCR of C1q, IL-6 and TNFα in AβO-activated BV-2 microglia", "type": "cell-based", "design": "key to mRNA levels of C1q / mRNA levels of IL-6 / mRNA levels of TNFα: relative expression normalized to GAPDH by 2^-ΔΔCt; PBS = 1", "experimental": "Synthetic Abeta1-42 oligomers were generated as previously described (PMID: 27834631). Hydroxyfluroisopropanol (HFIP)-treated synthethic Abeta1-42 peptides (rPeptide, Bogart, GA, USA) were dissolved in dimethylsulfoxide (DMSO) and further diluted in phosphate-buffered saline (PBS) to obtain a 250 μM stock solution. The stock solution was incubated at 4° C. for at least 24 hours and stored at −80° C. until use. Before use, the solution was centrifuged at 12,000 g for 10 minutes and the supernatant was used as an oligomeric Aβ.\nBV-2 microglial cells were cultured in DMEM media. 10^6 of BV-2 microglia in 6 well plate were treated with 2.5 μM of Abeta for 4 hrs. Total RNA from cultured cells was extracted with a RNA isolation kit (Qiagen, Valencia, CA, USA) following manufacturer's instructions. RNA concentration was measured spectrophotometrically using a NanoDrop 2000 (Thermo scientific). Subsequently, 2 μg of total RNA was reverse transcribed to cDNA using the High-Capacity cDNA Reverse Transcription System (Life Technologies, Grand Island, NY, USA). Comparative qPCR was performed using fast SYBR Green Master Mix (Life Technologies) and steponeplus real-time pcr system (Applied Biosystems, Foster City, CA, USA). The expression levels of target genes were normalized to the expression of GAPDH and calculated based on the comparative cycle threshold Ct method^−ΔΔ(2) Ct. (n=3)\nTo examine the effect of RIPK2 inhibition, 10^6 of BV-2 microglia in 6 well plate were preincubated with DMSO, GSK583 (1 μM, Medchemexpress), OD361 (1 μM, Calbiochem), or Sorafenib (1 μM) for one hour. For mRNA analysis, 5 μM of AβO was treated additional for 4 hours.", "key": {"[1]": {"details": "inhibitor 1 μM pretreatment, AβO 5 μM, in words"}}, "data": [{"smiles": "CC(C)(C)S(=O)(=O)c1ccc2nccc(Nc3n[nH]c4ccc(F)cc34)c2c1", "note": "[GSK583, 6-(tert-butylsulfonyl)-N-(5-fluoro-1H-indazol-3-yl) quinolin-4-amine]", "values": [{"measurement": "mRNA levels of IL-6", "setting": "BV-2 microglia preincubated 1 h with inhibitor 1 μM, then AβO 5 μM 4 h, PBS = 1 ± 0.08, Abeta alone 12.53 ± 0.59, ±SD", "result": "4.89 ± 0.23"}, {"measurement": "mRNA levels of C1q", "setting": "BV-2 microglia preincubated 1 h with inhibitor 1 μM, then AβO 5 μM 4 h, PBS = 1 ± 0.13, Abeta alone 3.7 ± 0.06, ±SD", "result": "0.87 ± 0.14"}, {"measurement": "mRNA levels of TNFα", "setting": "BV-2 microglia preincubated 1 h with inhibitor 1 μM, then AβO 5 μM 4 h, PBS = 1 ± 0.16, Abeta alone 16.19 ± 3.21, ±SD", "result": "3.23 ± 0.27"}, {"measurement": "microglial activation", "setting": "[1]", "result": "blocked microglial activation"}, {"measurement": "release of multiple inflammatory mediators including C1q, IL-6 and TNFα", "setting": "[1]", "result": "significantly reduced"}]}]}
